Test results as given in patent US20150209354A1, “CASEIN KINASE 1 INHIBITORS FOR THE TREATMENT OF B-CELL CHRONIC LYMPHOCYTIC|LEUKEMIA” (MASARYKOVA UNIVERZITA, priority 2012, published 2015).
“Also recorded” adds a separate entry of the source.

Tests used:
primary CLL cells [1] = assay: Migration of pre-treated primary CLL cells into tissues of transplanted NSG mice (FACS of calcein-positive cells); format: in vivo; conditions: cells pre-treated 20 hours with 100 μM D4476; intraperitoneal injection; tissues analysed after 24 hours; vs DMSO
Description: (§1) FIG. 3: CK1 controls the migration of CLL cells in vivo. (A) Layout of the experiment: CLL cells were obtained by purification from the samples of fresh blood from patients, stimulated and stained in vitro using green calcein. They were subsequently intraperitoneally injected to NSG mice. After 24 hours the murine tissues were examined for the presence of calcein-positive CLL cells using flow-cytometry (refer to the G1 cut-out in the typical dot plot distribution). (B) The rate of apoptosis in primary CLL cells after adding DMSO/D4476 (CK1 inh. I) was determined by the analysis of membrane potential of mitochondria using flow-cytometry while using tetramethylrhodamine ethyl ester (TMRE) stained with green calcein dye. […] The charts show the ratio of the CLL cells (the quantity of positive cells/total quantity of cells in the organ) treated by DMSO or D4476 (CK1 inh. I) that were obtained from the spleen (Ci), liver (Cii), and bone marrow (Ciii) of transplanted mice. […]
(§2) Freshly isolated human CLL lymphocytes (25×10^6 from the patient) were pre-treated for 20 hours with a CK1 inhibitor (100 μM, D4476, Calbiochem), and dimethylsulfoxide (DMSO, Sigma-Aldrich) as control. […] Samples of spleen, liver, and femoral bone marrow of mice were taken 24 hours after the injection and analyzed. Migration of calcein-positive CLL cells to these tissues was determined by FACS analysis (FACScalibur).

MEC1 cells [2] = assay: Transwell migration of MEC1 cells to chemokines CCL19 and CCL21; format: cell-based, human; conditions: D4476 100 μM overnight; CCL19 and CCL21 200 ng/ml; vs DMSO control
Description: FIG. 1: Migration of MEC1 cells which represents an in-vitro CLL model was investigated in the presence of chemokines CCL19 and CCL21 (200 ng/ml) using Transwell migration chamber. The rate of migration is expressed as a migration index. The MEC1 migration triggered by the chemokines CCL21 and CCL19 is blocked by CK1 inhibitors—D4476 (CK1 inh. I; 100 μM) and PF670462 (CK1 inh. II; 50 μM). The values in the FIGS. 1A and 1B represent the average and the standard error. Statistical significance was tested using One-way ANOVA and Tukey post-hoc test (*p<0.05, **p<0.01, ***p<0.001).
In this example, the MEC1 cell line was used, which is a well-defined cell line obtained from a CLL patient in a pro-lymphocytic transformation. The MEC1 line is used as a transplantation model of CLL. […]
(§3) Into the upper insert of HTS Transwell® 96-well plates (Corning Incorporated, Mexico) with polycarbonate membranes with the pore size of 5.0 μm, 0.5×10^6 MEC1 cells were seeded. […] The migration to chemokine was then analyzed using the Coulter Counter instrument (model FN, Coulter Electronics, Fla., USA). The migration index was calculated as the number of cells (treated or non-treated) migrating to the chemokine divided by the number of cells migrating only to the control medium.

MEC1 cells [3] = assay: Chemokine-controlled transendothelial invasion of MEC1 cells through HUVEC layer (Transwell); format: cell-based, human; conditions: D4476 100 μM overnight, HUVEC-covered Transwell
Description: FIG. 2: Transendothelial invasiveness of the MEC1 cells was tested in the Transwell migration chamber in an arrangement where the upper chamber was covered with one layer of HUVEC endothelial cells. The rate of invasiveness (determined as the migration index) of the MEC1 cells was analyzed in the presence of the chemokine CCL19, Wnt5a, or in combination of both substances. The positive effect of CCL19 to the transendothelial migration of MEC1 was inhibited by addition of D4476 (CK1 inh. I). Statistical significance was tested using One-way ANOVA test and Tukey post-hoc test (***p<0.001). Each experiment was independently repeated three-times.
In the complex environment of the human body, cells react to the attractants and have to pass through extra-cellular matrix or endothelial barrier, which is a process known as invasion. […]
as §3, with “μm, covered with HUVEC (human umbilical vein endothelial cells monolayer),” for “μm,”

primary CLL cells [4] = assay: Rate of apoptosis of primary CLL cells by mitochondrial membrane potential (TMRE/calcein flow cytometry); format: cell-based, human; conditions: 100 μM D4476, 20 hours pre-treatment; TMRE and calcein staining; vs DMSO
Description: as §1
as §2, with “(FACScalibur). […]” for “(FACScalibur).”

NC(=O)c1ccc(-c2nc(-c3ccc4c(c3)OCCO4)c(-c3ccccn3)[nH]2)cc1 [D4476]
migration of CLL cells to the spleen, liver and bone marrow (primary CLL cells [1]): reduced | MEC1 migration (migration index) triggered by the chemokines CCL21 and CCL19 (MEC1 cells [2]): blocked | CCL19-induced transendothelial migration (invasiveness, migration index) of MEC1 cells (MEC1 cells [3]): inhibited | rate of apoptosis in primary CLL cells (primary CLL cells [4]): does not alter the rate of apoptosis; also recorded: without an increase of cell apoptosis being detected
